Experimental data as given in US20120083522A1, “MODULATION OF INFLAMMATORY RESPONSES BY FACTOR XI” (Isis Pharmaceuitcals, inc., priority 2009, published 2012).
In the oligonucleotide strings, read from the 5' end, every base follows the letter of its sugar. An asterisk marks phosphorothioate; unmarked linkages are phosphodiester. Other units and linkages are bracketed, terminal groups are in braces. A string of capitals states the bases alone. e = 2'-O-(2-methoxyethyl) (MOE); [5mC] = 5-methylcytosine; d = 2'-deoxy (DNA)

Columns and labels:
[1] = Tolerability in CD1 mice: body and organ weight (Example 25); format: in vivo; conditions: 50 mg/kg s.c. twice per week for 6 weeks
[2] = system: DSS-induced colitis model; test: Colitis Study C: stool softness/diarrhea; format: in vivo, mice; conditions: after seven days
Procedure: A third study on colitis using Factor XI oligonucleotide (ISIS 404071, SEQ ID NO: 11) was conducted. The study was performed essentially as described earlier in this example. A stool softness/diarrhea study was conducted.

[3] = system: IFN-γ, IL-10, IL-12, IL-1β, IL-2, IL-4, IL-5, TNF-α, KC; test: Colitis Study E: cytokine levels in colon (multiplex ELISA); format: in vivo, Swiss Webb mice; conditions: for IFN-γ level in the colon / IL-1β level in the colon / IL-2 level in the colon / IL-4 level in the colon / IL-5 level in the colon / IL-10 level in the colon / IL-12 level in the colon / KC level in the colon / TNF-α level in the colon: DSS-treated mice
Procedure: Two groups 8 Swiss Webb mice were dosed with 40 mg/kg of ISIS 404071 injected subcutaneously twice a week for 3 weeks. Two control groups of 8 Swiss Webb mice were dosed with PBS subcutaneously twice a week for 3 weeks. Both the ASO treated groups and one of the control groups were then given 4% DSS in distilled water for 7 days ad libitum. One of the ASO and DSS treated groups was also given intravenous injections of 20 μg of recombinant human Factor XI protein (Haematologic Technologies Inc.) for 7 consecutive days, starting the day before DSS treatment. Mice were sacrificed at the end of the study on day 7 after DSS was administered.
The cytokine levels of IFN-γ, IL-10, IL-12, IL-1β, IL-2, IL-4, IL-5, TNF-α, and keratinocyte chemoattractant (KC) were measured in the colon of the mice groups at the end of the study on day 7 after DSS was administered. Colons were homogenized on ice in PBS supplemented with protease inhibitors (Sigma, St. Louis, Mo.) and extracted with rotation at 4° C. for 1 hour. After removal of insoluble material by centrifugation, colon homogenates were used for the cytokine analysis by multiplex ELISA (Mouse TH1/TH2 9-Plex Ultra-Sensitive Kit, Meso Scale Discovery, Gaithersburg, Md.) according to the manufacture's protocol. Cytokine levels in colon extracts were normalized to the protein concentration measured by protein assay kit (BioRad, Hercules, Calif.). The levels of pro-inflammatory cytokines, IFN-γ, IL-1β, IL-10, IL-2, IL-5, TNF-α, and KC were elevated by DSS administration, and were decreased by treatment with ISIS 404071.

[4] = system: collagen-induced arthritis model; test: Arthritis Study B: collagen-induced arthritis, clinical effects (Example 11); format: in vivo, DBA/1J mice
Procedure: The effect of inhibition of Factor XI and its role in fibrin accumulation in the joints leading to joint inflammation and rheumatoid arthritis was evaluated in a murine collagen-induced arthritis (CIA) model. […] Arthritis induced in mice administered collagen can be visually assessed and clinically scored as described by Marty et al. (J Clin Invest, 107:631-640, 2001) where 1 point is given for each swollen digit except the thumb (maximum, 4), 1 point is given for the tarsal or carpal joint, and 1 point is given for the metatarsal or metacarpal joint with a maximum score of […]. Each paw was graded individually, the cumulative clinical arthritic score per mouse reaching a maximum of 22 points
In a group of 20 DBA/1J mice, 20 mg/kg of ISIS 404071 were injected subcutaneously twice a week for ten weeks. In a second group of 20 DBA/1J mice, 20 mg/kg of ISIS 404057 were injected subcutaneously twice a week for ten weeks. In a third control group of 20 DBA/1J mice, 20 mg/kg of ISIS 421208 were injected subcutaneously twice a week for ten weeks. Two control groups of 20 mice each were injected with PBS twice a week for ten weeks.
Two and a half weeks after the first oligonucleotide dose, type II bovine collagen in complete Freund's adjuvant was injected subcutaneously at the base of the tail in all the experimental groups and one PBS control group. A booster injection containing 100 μg collagen type II in incomplete Freund's adjuvant was injected subcutaneously at the base of the tail at a different injection site on day 21 after the first collagen injection in these groups.
Mice in all groups were examined daily after day 30 after the first collagen injection for the visual appearance of arthritis in peripheral joints. The results in Table 22 are expressed as percent change compared to the PBS control except for the liver and spleen weight.

[5] = system: soluble CD40 ligand (CD40L); test: Colitis Study D: CD40L levels; format: in vivo, Swiss Webb mice; conditions: for CD40L levels in colon: DSS-treated mice
Procedure: In a first group of 8 Swiss Webb mice, 10 mg/kg of ISIS 404071 was injected subcutaneously twice a week for 3 weeks. In a second group of 8 Swiss Webb mice, 20 mg/kg of ISIS 404057 was subcutaneously injected twice a week for 3 weeks. In a third control group of 8 Swiss Webb mice, 40 mg/kg of ISISI 404057 was injected subcutaneously twice a week for 3 weeks. Two control groups of 8 mice each were injected with PBS twice a week for 3 weeks. After the oligonucleotide treatment, 4% DSS in water was administered ad libitum for 7 days to all the experimental groups and one PBS control group.
Plasma levels of soluble CD40 ligand (CD40L) are known to be elevated in cases of inflammatory bowel disease (Ludwiczek, O. et al., Int. J. Colorectal Disease. 2003. 18: 142-147) and may be considered a marker of intestinal inflammation. […]

[6] = DBA/1J mice, 20 mg/kg s.c. twice a week for ten weeks, end of study

**Q.** For “ISIS 416850: gapmer of Table 8 (antisense eT*eG*e[5mC]*eA*e[5mC]*dA*dG*dT*dT*dT*d[5mC]*dT*dG*dG*d[5mC]*eA*eG*eG*e[5mC]*e[5mC])”, which “Body weight (increase over PBS control weight before start of treatment)” value [1] is on record?
**A.** 11 g

**Q.** And the “Kidney weight as percentage of body weight” value ([1]; end of study)?
**A.** 1.5%

**Q.** What about the “Liver weight as percentage of body weight” value ([1]; end of study) of the same substance?
**A.** 6%

**Q.** And the “Spleen weight as percentage of body weight” value ([1]; end of study)?
**A.** 0.4%

**Q.** With “TGGTAATCCACTTTCAGAGG (eT*eG*eG*eT*eA*dA*dT*d[5mC]*d[5mC]*dA*d[5mC]*dT*dT*dT*d[5mC]*eA*eG*eA*eG*eG) [ISIS 404071, 5-10-5 MOE gapmer targeting murine Factor XI, target start site 869]” as the substance, how does the “stool softness/diarrhea (in words)” value [2] read?
**A.** normal to soft stool but no diarrhea

**Q.** And the “pro-inflammatory cytokine levels in colon: IFN-γ, IL-1β, IL-10, IL-2, IL-5, TNF-α, KC (in words)” value ([3]; Colitis Study E, day 7)?
**A.** decreased

**Q.** What about the “IFN-γ level in the colon” value ([3]; day 7, no rFXI) of the same substance?
**A.** 1.10 pg/mg

**Q.** What about the “IL-1β level in the colon” value ([3]; day 7, no rFXI) of the same substance?
**A.** 50 pg/mg

**Q.** What about the “IL-2 level in the colon” value ([3]; day 7, no rFXI) of the same substance?
**A.** 0.11 pg/mg

**Q.** And the “IL-4 level in the colon” value ([3]; day 7, no rFXI)?
**A.** 0.012 pg/mg

**Q.** And the “IL-5 level in the colon” value ([3]; day 7, no rFXI)?
**A.** 0.04 pg/mg

**Q.** And the “IL-10 level in the colon” value ([3]; day 7, no rFXI)?
**A.** 4.7 pg/mg

**Q.** And the “IL-12 level in the colon” value ([3]; day 7, no rFXI)?
**A.** 64 pg/mg

**Q.** What about the “KC level in the colon” value ([3]; day 7, no rFXI) of the same substance?
**A.** 27 pg/mg

**Q.** And the “TNF-α level in the colon” value ([3]; day 7, no rFXI)?
**A.** 0.24 pg/mg

**Q.** And the “IFN-γ level in the colon” value ([3]; day 7, plus rFXI 20 ug/day)?
**A.** 4.51 pg/mg

**Q.** And the “IL-1β level in the colon” value ([3]; day 7, plus rFXI 20 ug/day)?
**A.** 103 pg/mg

**Q.** What about the “IL-2 level in the colon” value ([3]; day 7, plus rFXI 20 ug/day) of the same substance?
**A.** 0.28 pg/mg

**Q.** And the “IL-4 level in the colon” value ([3]; day 7, plus rFXI 20 ug/day)?
**A.** 0.004 pg/mg

**Q.** And the “IL-5 level in the colon” value ([3]; day 7, plus rFXI 20 ug/day)?
**A.** 0.17 pg/mg

**Q.** What about the “IL-10 level in the colon” value ([3]; day 7, plus rFXI 20 ug/day) of the same substance?
**A.** 5.8 pg/mg

**Q.** What about the “IL-12 level in the colon” value ([3]; day 7, plus rFXI 20 ug/day) of the same substance?
**A.** 96 pg/mg

**Q.** And the “KC level in the colon” value ([3]; day 7, plus rFXI 20 ug/day)?
**A.** 62 pg/mg

**Q.** What about the “TNF-α level in the colon” value ([3]; day 7, plus rFXI 20 ug/day) of the same substance?
**A.** 0.91 pg/mg

**Q.** What about the “amount of arthritis assessed (in words)” value ([4]; Arthritis Study B, 20 mg/kg twice a week for ten weeks, compared to untreated mice) of the same substance?
**A.** significantly decreased the amount of arthritis

**Q.** And the “% of CIA” value [4, 6]?
**A.** 64%

**Q.** And the “% of paws affected” value [4, 6]?
**A.** 20%

**Q.** What about the “Average no. of paws affected” value [4, 6] of the same substance?
**A.** 0.82

**Q.** What about the “Clinical severity of CIA” value [4, 6] of the same substance?
**A.** 4.6

**Q.** What about the “CD40L levels (in words)” value ([5]; Colitis Study D) of the same substance?
**A.** decreased

**Q.** What about the “CD40L levels in colon” value ([5]; 10 mpk) of the same substance?
**A.** 0.19 ng/mg protein

**Q.** What about the “CD40L levels in colon” value ([5]; 20 mpk) of the same substance?
**A.** 0.26 ng/mg protein

**Q.** What about the “CD40L levels in colon” value ([5]; 40 mpk) of the same substance?
**A.** 0.39 ng/mg protein
